Results published in PMC10745491 (Frontiers in Cellular Neuroscience, 2023).
Read-outs that look alike come from different tables or passages of the source. Peptide text beside a SMILES is read from it.

Legend:
alpha 1A = alpha 1A (Homo sapiens, UniProt P35348); format: binding
GSK3beta = GSK3beta (Homo sapiens, UniProt P49841)
beta 1 = beta 1 (Homo sapiens, UniProt P08588)
A3 = A3 (Homo sapiens, UniProt P0DMS8)
D2S = D2S (Homo sapiens, UniProt P14416); format: binding
H2 = H2 (Homo sapiens, UniProt P25021)
CDK2 = CDK2 (Homo sapiens, UniProt P24941)
brain OXTR = settings: in vivo
[1] = in vivo, sc
sst4 = sst4 (Homo sapiens, UniProt P31391); format: binding
GR = GR (Homo sapiens, UniProt P04150)
BZD = test: radioligand binding assay; set-up: species or system human
acetylcholinesterase = acetylcholinesterase (Homo sapiens, UniProt P22303); format: biochemical
COX2 = COX2 (Homo sapiens, UniProt P35354)
NE transporter = NE transporter (Homo sapiens, UniProt P23975)
5-HT1A = 5-HT1A (Homo sapiens, UniProt P08908)
HIV-1 protease = HIV-1 protease (Human immunodeficiency virus type 1 group M subtype B, UniProt P04585)
ERalpha = ERalpha (Homo sapiens, UniProt P03372)
M4 = M4 (Homo sapiens, UniProt P08173); format: binding
M4, sequence (P08173 whole entry): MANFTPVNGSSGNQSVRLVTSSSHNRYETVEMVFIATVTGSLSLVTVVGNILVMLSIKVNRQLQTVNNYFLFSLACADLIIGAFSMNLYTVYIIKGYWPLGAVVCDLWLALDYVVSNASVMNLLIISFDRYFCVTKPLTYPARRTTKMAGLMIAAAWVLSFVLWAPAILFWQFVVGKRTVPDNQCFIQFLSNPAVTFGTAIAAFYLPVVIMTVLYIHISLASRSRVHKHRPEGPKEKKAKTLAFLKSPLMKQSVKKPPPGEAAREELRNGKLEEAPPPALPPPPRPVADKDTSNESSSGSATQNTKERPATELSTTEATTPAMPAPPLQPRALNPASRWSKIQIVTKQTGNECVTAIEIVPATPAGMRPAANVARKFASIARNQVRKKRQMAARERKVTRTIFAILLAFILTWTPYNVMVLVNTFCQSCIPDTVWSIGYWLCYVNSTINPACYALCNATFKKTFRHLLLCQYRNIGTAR

alpha 1A, sequence (P35348 whole entry): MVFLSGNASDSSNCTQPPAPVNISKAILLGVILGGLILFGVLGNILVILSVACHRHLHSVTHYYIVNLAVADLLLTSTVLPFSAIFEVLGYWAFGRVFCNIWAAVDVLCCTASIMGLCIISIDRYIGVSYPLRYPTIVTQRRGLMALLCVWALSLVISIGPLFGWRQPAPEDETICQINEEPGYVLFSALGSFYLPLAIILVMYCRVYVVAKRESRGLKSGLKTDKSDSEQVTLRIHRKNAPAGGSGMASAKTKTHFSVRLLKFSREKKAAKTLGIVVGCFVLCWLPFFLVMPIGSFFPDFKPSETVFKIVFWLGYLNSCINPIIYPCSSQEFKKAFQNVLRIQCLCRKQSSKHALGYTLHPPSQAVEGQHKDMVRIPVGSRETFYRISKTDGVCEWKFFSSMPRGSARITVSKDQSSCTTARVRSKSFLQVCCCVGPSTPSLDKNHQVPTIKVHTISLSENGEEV
acetylcholinesterase, sequence (P22303 32-614): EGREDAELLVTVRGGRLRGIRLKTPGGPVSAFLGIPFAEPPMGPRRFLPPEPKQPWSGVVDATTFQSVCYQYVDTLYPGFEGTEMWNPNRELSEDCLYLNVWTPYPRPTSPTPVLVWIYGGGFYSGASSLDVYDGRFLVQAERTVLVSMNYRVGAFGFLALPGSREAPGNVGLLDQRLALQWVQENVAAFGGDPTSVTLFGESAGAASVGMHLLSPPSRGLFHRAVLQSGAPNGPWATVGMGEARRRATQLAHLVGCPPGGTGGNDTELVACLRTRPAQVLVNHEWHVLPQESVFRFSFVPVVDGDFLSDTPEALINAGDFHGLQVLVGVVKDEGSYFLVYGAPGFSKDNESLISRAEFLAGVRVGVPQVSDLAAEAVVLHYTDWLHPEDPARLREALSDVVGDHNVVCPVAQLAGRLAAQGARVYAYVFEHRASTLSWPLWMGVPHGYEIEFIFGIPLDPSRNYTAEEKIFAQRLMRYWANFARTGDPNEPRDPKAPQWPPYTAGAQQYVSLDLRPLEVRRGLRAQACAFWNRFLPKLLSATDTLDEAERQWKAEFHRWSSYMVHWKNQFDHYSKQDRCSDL
D2S, sequence (P14416 other isoform, or with tags, fused parts or gaps): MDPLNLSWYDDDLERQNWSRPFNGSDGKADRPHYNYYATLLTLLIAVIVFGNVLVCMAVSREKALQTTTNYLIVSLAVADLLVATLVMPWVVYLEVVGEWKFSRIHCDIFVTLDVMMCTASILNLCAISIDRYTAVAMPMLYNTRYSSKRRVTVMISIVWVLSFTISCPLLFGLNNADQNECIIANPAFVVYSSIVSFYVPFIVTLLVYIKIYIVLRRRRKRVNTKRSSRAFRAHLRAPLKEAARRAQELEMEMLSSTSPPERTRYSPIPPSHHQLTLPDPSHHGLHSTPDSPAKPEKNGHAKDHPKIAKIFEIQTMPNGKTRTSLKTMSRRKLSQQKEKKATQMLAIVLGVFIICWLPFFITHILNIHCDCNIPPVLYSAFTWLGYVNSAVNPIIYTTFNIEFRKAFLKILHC
A3, sequence (P0DMS8 whole entry): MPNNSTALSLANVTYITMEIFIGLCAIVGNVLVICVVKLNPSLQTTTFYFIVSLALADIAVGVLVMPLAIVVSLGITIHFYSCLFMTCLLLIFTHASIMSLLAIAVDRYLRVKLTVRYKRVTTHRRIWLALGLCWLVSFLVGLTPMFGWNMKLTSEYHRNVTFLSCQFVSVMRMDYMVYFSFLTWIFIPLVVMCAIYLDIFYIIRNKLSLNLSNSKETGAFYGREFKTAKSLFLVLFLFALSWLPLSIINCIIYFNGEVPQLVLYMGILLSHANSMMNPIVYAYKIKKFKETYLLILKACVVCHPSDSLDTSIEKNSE
sst4, sequence (P31391 whole entry): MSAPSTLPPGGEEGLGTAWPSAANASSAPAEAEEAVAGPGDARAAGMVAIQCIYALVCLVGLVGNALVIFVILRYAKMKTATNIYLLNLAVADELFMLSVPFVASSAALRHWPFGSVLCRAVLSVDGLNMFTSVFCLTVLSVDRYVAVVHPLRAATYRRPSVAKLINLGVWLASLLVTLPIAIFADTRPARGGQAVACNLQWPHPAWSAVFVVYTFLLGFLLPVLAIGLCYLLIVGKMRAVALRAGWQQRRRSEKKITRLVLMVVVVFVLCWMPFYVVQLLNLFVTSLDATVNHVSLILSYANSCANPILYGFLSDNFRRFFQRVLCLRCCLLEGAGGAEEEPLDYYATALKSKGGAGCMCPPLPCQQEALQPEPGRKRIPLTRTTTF
beta 1, sequence (P08588 whole entry): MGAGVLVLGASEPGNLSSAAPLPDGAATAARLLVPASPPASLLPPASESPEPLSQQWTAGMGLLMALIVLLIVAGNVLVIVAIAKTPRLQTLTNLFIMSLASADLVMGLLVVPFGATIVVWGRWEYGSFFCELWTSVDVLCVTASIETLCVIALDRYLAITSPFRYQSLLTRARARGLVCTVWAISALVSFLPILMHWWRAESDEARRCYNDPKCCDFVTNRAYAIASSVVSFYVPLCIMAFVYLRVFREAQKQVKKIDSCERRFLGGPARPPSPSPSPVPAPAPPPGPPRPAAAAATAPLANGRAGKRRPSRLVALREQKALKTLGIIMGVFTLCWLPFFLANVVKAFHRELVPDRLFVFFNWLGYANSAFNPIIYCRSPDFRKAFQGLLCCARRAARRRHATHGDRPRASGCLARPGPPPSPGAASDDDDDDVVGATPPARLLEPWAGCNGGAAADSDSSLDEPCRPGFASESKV
ERalpha, sequence (P03372 whole entry): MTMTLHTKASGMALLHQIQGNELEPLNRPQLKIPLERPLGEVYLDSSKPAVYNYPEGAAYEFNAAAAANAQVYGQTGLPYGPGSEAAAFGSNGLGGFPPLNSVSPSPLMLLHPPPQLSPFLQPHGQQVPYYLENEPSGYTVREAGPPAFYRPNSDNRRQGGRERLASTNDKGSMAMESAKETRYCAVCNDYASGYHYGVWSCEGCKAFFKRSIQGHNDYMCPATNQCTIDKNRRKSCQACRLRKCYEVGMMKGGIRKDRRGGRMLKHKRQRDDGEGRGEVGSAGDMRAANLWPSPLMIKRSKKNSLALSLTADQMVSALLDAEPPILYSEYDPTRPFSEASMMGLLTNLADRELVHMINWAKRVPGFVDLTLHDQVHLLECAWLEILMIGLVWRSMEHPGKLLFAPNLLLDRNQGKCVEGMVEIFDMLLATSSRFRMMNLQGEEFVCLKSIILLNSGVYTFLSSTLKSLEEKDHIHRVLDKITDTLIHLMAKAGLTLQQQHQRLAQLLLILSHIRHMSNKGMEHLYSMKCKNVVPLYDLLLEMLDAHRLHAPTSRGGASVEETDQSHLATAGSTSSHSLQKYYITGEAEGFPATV
GSK3beta, sequence (P49841 whole entry): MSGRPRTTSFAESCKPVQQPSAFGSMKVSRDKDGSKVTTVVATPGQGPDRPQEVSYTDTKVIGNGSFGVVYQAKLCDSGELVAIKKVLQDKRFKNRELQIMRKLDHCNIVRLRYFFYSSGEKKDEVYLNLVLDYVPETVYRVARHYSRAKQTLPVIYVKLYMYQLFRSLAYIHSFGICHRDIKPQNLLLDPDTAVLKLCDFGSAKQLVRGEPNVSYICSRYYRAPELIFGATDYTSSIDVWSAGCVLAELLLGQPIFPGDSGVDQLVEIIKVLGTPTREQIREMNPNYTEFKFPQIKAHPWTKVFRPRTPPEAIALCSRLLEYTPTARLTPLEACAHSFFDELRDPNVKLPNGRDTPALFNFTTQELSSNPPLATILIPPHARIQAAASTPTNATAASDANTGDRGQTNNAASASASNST
H2, sequence (P25021 whole entry): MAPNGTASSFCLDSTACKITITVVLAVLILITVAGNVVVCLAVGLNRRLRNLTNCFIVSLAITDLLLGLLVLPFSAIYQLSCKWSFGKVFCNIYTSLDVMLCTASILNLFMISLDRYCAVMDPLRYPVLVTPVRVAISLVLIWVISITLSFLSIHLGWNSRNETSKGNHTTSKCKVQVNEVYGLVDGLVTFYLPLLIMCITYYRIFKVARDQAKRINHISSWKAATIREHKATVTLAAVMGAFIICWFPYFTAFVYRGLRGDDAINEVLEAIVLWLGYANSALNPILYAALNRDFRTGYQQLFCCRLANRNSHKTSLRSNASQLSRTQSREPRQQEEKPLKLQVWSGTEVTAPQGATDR
5-HT1A, sequence (P08908 whole entry): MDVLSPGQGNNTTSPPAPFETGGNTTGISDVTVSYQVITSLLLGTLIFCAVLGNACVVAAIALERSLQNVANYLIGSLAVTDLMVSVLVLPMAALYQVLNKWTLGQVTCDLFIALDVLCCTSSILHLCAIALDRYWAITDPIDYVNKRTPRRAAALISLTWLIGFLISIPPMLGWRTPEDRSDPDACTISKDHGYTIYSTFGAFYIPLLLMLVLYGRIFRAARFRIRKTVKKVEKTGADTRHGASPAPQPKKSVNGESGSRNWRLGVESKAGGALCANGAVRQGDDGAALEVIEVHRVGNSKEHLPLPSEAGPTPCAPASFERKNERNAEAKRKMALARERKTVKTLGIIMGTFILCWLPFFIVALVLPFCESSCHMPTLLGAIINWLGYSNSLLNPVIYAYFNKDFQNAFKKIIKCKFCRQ

In the case of CC[C@H](C)[C@@H]1NC(=O)[C@H](Cc2ccc(O)cc2)NC(=O)CNC(=O)CC[C@@H](C(=O)N2CC(F)C[C@H]2C(=O)N[C@@H](CC(C)C)C(=O)NCC(N)=O)NC(=O)[C@H](CC(N)=O)NC(=O)[C@H](CCC(N)=O)NC1=O (some centres unmarked) [RO6958375] (HELM PEPTIDE1{G.Y.I.Q.N.E.[O=C([C@@H]1CC(F)CN1[*:1])[*:2]].L.G.[am]}$PEPTIDE1,PEPTIDE1,1:R1-6:R3$$$V2.0), the “% Inhibition of Control Specific Binding” value (alpha 1A) is reported as 1%, the “Mean / % of Control Specific Binding” value (alpha 1A) is reported as 98.8% and the “% Inhibition of Control Specific Binding” value (GSK3beta) is reported as -2%. The “Mean / % of Control Specific Binding” value (GSK3beta) was 102.1%, the “% Inhibition of Control Specific Binding” value (beta 1) was -5% and the “Mean / % of Control Specific Binding” value (beta 1) was 105.2%. For the same compound, the “% Inhibition of Control Specific Binding” value (A3) was 4%, the “Mean / % of Control Specific Binding” value (A3) was 96.4% and the “% Inhibition of Control Specific Binding” value (D2S) was 6%. For the same compound, the “Mean / % of Control Specific Binding” value (D2S) was 93.7%, the “% Inhibition of Control Specific Binding” value (H2) was 18% and the “Mean / % of Control Specific Binding” value (H2) was 81.9%. The “% Inhibition of Control Specific Binding” value (CDK2) was 13%, the “Mean / % of Control Specific Binding” value (CDK2) was 87.1% and the “% Inhibition of Control Specific Binding” value (glycine) was 15%. The “Mean / % of Control Specific Binding” value (glycine) was 84.6%, the “time of full activation of rat OXTR post-dose” value (brain OXTR; sc) was 4.3 h and the “CSF concentration relative to in vitro OXTR EC50” value (brain OXTR; rat) was “more than 10 fold”. The “brain OXTR activation” value (brain OXTR; rat) was 0%, the “brain OXTR activation” value (brain OXTR; rat, sc, 0.001 mg/kg) was 10% and the “brain OXTR activation” value (brain OXTR; rat, sc, 0.07 mg/kg) was 72%. The “highest concentration detected in rat CSF” value ([1]; 0.03 mg/kg) was 0.24 nM, the “highest concentration detected in rat CSF” value ([1]; 0.1 mg/kg) was 0.58 nM and the “CNS uptake from plasma” value ([1]; rat) was “ca. 1%”. The “brain half-life (CSF kinetic)” value ([1]; rat) was “ca. 70 min”, the half-life in plasma ([1]; rat) was 10 to 15 min and the subcutaneous absorption ([1]; rat) was “rapid”. The “% Inhibition of Control Specific Binding” value (sst4) was 17%, the “Mean / % of Control Specific Binding” value (sst4) was 82.8% and the “% Inhibition of Control Specific Binding” value (GR) was -9%. The “Mean / % of Control Specific Binding” value (GR) was 109.1%, the “% Inhibition of Control Specific Binding” value (BZD) was -16% and the “Mean / % of Control Specific Binding” value (BZD) was 116%. The “% Inhibition of Control Specific Binding” value (acetylcholinesterase) was -2%, the “Mean / % of Control Specific Binding” value (acetylcholinesterase) was 101.5% and the “% Inhibition of Control Specific Binding” value (COX2) was 15%. The “Mean / % of Control Specific Binding” value (COX2) was 85.3%, the “% Inhibition of Control Specific Binding” value (NE transporter) was 3% and the “Mean / % of Control Specific Binding” value (NE transporter) was 97.2%. The “% Inhibition of Control Specific Binding” value (5-HT1A) was 16%, the “Mean / % of Control Specific Binding” value (5-HT1A) was 84.4% and the “% Inhibition of Control Specific Binding” value (HIV-1 protease) was 5%. For the same compound, the “Mean / % of Control Specific Binding” value (HIV-1 protease) was 95.3%, the “% Inhibition of Control Specific Binding” value (ERalpha) was -2% and the “Mean / % of Control Specific Binding” value (ERalpha) was 101.7%. The “% Inhibition of Control Specific Binding” value (M4) was -17% and the “Mean / % of Control Specific Binding” value (M4) was 116.9%.
